Measurements published in patent US20130157852A1, “HERBICIDAL COMPOSITION CONTAINING FLUROXYPYR AND GLYPHOSATE” (DOW AGROSCIENCES LLC, priority 2011, published 2013).

Columns and labels:
Format in all cases: in vivo
[1] = test system: Conyza canadensis (L.) Cronq. (ERICA, horseweed); experiment: Postemergence field weed control, ERICA; details: 43 DAA
Protocol: (§1) Evaluation of Postemergence Herbicidal Activity of Mixtures under Field Conditions Methodology
(§2) Trial sites were located in various countries around the world, including Brazil, United States, Hungary, Indonesia and Malaysia, in non-crop and perennial tree crop plantations. Trials were conducted using normal small plot R&D trials using standard research methodology. Trial plots were between 2 to 4 meters (m) wide by 3 to 10 m long. All treatments were applied using a randomized complete block or factorial trial design with 3-4 replications per treatment. The trial sites had naturally occurring populations of weeds. The weed spectrum included, but was not limited to, scarlet pimpernel (Anagallis arvensis L., ANGAR), tropical carpetgrass (Axonopus compressus, AXOCO), Canada thistle (Cirsium arvense (L.) Scop., CIRAR), calopo (Calopogonium mucunoides, CLOMU), Bengal dayflower (Commelina benghalensis L., COMBE), field bindweed (Convolvus arvensis, CONAR), horseweed (Conyza canadensis (L.) Cronq., ERICA), kochia (Kochia scoparia (L.) Schrad., KCHSC), common mallow (Malva neglecta Wallr., MALNE), African mile-a-minute (Mikania cordata (Burm. f.) B. L., MIKCO), slender panicgrass (Ottochloa nodosa, OTTNO), paspalum (Paspalum conjugatum Bergius, PASCO), wild buckwheat (Polygonum convolvulus L., POLCO) and stinging nettle (Urtica dioica L., URTDI).
(§3) Treatments consisted of tank mixes of commercially available formulations of fluoroxypyr-meptyl ester (Starane® 200, Starane® 250, Starane® Ultra) and glyphosate (Roundup® isopropylammonium salt, Glizmax, Gliz) applied in water. The application volume varied from location to location but was from 100 to 450 liters per hectare (L/ha). Application was made using a precision gas backpack sprayer at pressures ranging from 150 to 300 kPA pressure using 2 to 4 m booms utilizing 4 to 8 flat fan nozzles to broadcast the treatments to the weeds and to the soil.
The treated and control plots were rated blind at various intervals after application. […]

[2] = test system: Cirsium arvense (L.) Scop. (CIRAR, Canada thistle); experiment: Postemergence field weed control, CIRAR
Protocol: as §1, §2, §3
(§4) The treated and control plots were rated blind at various intervals after application. Ratings were based on Percent (%) Visual weed control, where 0 corresponds to no control and 100 corresponds to complete control.
(§5) Colby's equation was used to determine the herbicidal effects expected from the mixtures (Colby, S. R. Calculation of the synergistic and antagonistic response of herbicide combinations. Weeds 1967 15, 20-22).
(§6) The following equation was used to calculate the expected activity of mixtures containing two active ingredients, A and B:
(§7) A=observed efficacy of active ingredient A at the same concentration as used in the mixture;
(§8) B=observed efficacy of active ingredient B at the same concentration as used in the mixture.

[3] = test system: Urtica dioica L. (URTDI, stinging nettle); experiment: Postemergence field weed control, URTDI; details: 28 DAA
Protocol: as §1
as §2, with “URTDI). […]” for “URTDI).”

[4] = test system: Axonopus compressus (AXOCO, tropical carpetgrass); experiment: Postemergence field weed control, AXOCO; details: 70 DAA
Protocol: as §1
as §2, with “URTDI). […]” for “URTDI).”

[5] = test system: Malva neglecta Wallr. (MALNE, common mallow); experiment: Postemergence field weed control, MALNE; details: 14 DAA
Protocol: as §1
as §2, with “URTDI). […]” for “URTDI).”

[6] = test system: Commelina benghalensis L. (COMBE, Bengal dayflower); experiment: Postemergence field weed control, COMBE; details: 28 DAA
Protocol: as §1
as §2, with “URTDI). […]” for “URTDI).”

[7] = test system: Kochia scoparia (L.) Schrad. (KCHSC, kochia); experiment: Postemergence field weed control, KCHSC; details: 36 DAA
Protocol: as §1
as §2, with “URTDI). […]” for “URTDI).”

[8] = test system: Ottochloa nodosa (OTTNO, slender panicgrass); experiment: Postemergence field weed control, OTTNO; details: 70 DAA
Protocol: as §1
as §2, with “URTDI). […]” for “URTDI).”

[9] = test system: Convolvus arvensis (CONAR, field bindweed); experiment: Postemergence field weed control, CONAR; details: 59 DAA
Protocol: as §1, §2, §3, §4, §5, §6, §7, §8

[10] = test system: Polygonum convolvulus L. (POLCO, wild buckwheat); experiment: Postemergence field weed control, POLCO; details: 14 DAA
Protocol: as §1, §2, §3, §4, §5, §6, §7, §8

[11] = test system: Calopogonium mucunoides (CLOMU, calopo); experiment: Postemergence field weed control, CLOMU; details: 70 DAA
Protocol: as §1
as §2, with “URTDI). […]” for “URTDI).”

[12] = test system: Anagallis arvensis L. (ANGAR, scarlet pimpernel); experiment: Postemergence field weed control, ANGAR; details: 14 DAA
Protocol: as §1
as §2, with “URTDI). […]” for “URTDI).”

[13] = test system: Paspalum conjugatum Bergius (PASCO, sour paspalum); experiment: Postemergence field weed control, PASCO; details: 70 DAA
Protocol: as §1
as §2, with “URTDI). […]” for “URTDI).”

[14] = test system: Mikania cordata (MIKCO, African mile-a-minute); experiment: Postemergence field weed control, MIKCO; details: 28 DAA
Protocol: as §1
as §2, with “URTDI). […]” for “URTDI).”

[15] = fluroxypyr-meptyl 200 grams ae/ha alone
[16] = fluroxypyr-meptyl 53 gae/ha alone
[17] = fluroxypyr-meptyl 200 grams ae/ha alone, Table 3
[18] = fluroxypyr-meptyl 400 grams ae/ha alone, Table 4
[19] = glyphosate-isopropylammonium 500 gae/ha alone
[20] = glyphosate-isopropylammonium 1000 grams ae/ha alone

CCCCCCC(C)OC(=O)COc1nc(F)c(Cl)c(N)c1Cl (stereo not drawn) [Fluroxypyr-meptyl, fluoroxypyr-meptyl]
ERICA Obs (Observed weed control) ([1]; fluroxypyr-meptyl 140 grams ae/ha alone): 4% | CIRAR Obs (Observed weed control) ([2]; fluroxypyr-meptyl 300 grams ae/ha alone, 59 DAA): 3% | CIRAR Obs (Observed weed control) ([2]; fluroxypyr-meptyl 400 grams ae/ha alone, 14 DAA): 7% | URTDI Obs (Observed weed control) [3, 15]: 10% | AXOCO Obs (Observed weed control) [4, 16]: 0% | MALNE Obs (Observed weed control) [5, 15]: 48% | COMBE Obs (Observed weed control) [6, 15]: 36% | KCHSC Obs (Observed weed control) ([7]; fluroxypyr-meptyl 67 grams ae/ha alone): 48% | OTTNO Obs (Observed weed control) [8, 16]: 0% | CONAR Obs (Observed weed control) [9, 17]: 47% | CONAR Obs (Observed weed control) ([9]; fluroxypyr-meptyl 300 grams ae/ha alone, Table 4): 50% | CONAR Obs (Observed weed control) [9, 18]: 48% | POLCO Obs (Observed weed control) [10, 17]: 52% | POLCO Obs (Observed weed control) ([10]; fluroxypyr-meptyl 400 grams ae/ha alone, Table 3): 68% | POLCO Obs (Observed weed control) [10, 18]: 60% | CLOMU Obs (Observed weed control) [11, 16]: 69% | ANGAR Obs (Observed weed control) ([12]; fluroxypyr-meptyl 400 grams ae/ha alone): 0% | PASCO Obs (Observed weed control) [13, 16]: 0% | MIKCO Obs (Observed weed control) ([14]; fluroxypyr-meptyl 50 grams ae/ha alone): 42%

O=C(O)CNCP(=O)(O)O [Glyphosate-isopropylammonium, glyphosate-isopropylammonium]
ERICA Obs (Observed weed control) ([1]; glyphosate-isopropylammonium 560 grams ae/ha alone): 18% | ERICA Obs (Observed weed control) ([1]; glyphosate-isopropylammonium 840 grams ae/ha alone): 73% | CIRAR Obs (Observed weed control) ([2]; glyphosate-isopropylammonium 1000 grams ae/ha alone, 14 DAA): 58% | CIRAR Obs (Observed weed control) ([2]; glyphosate-isopropylammonium 1000 grams ae/ha alone, 59 DAA): 58% | URTDI Obs (Observed weed control) ([3]; glyphosate-isopropylammonium 1100 grams ae/ha alone): 24% | AXOCO Obs (Observed weed control) [4, 19]: 59% | MALNE Obs (Observed weed control) [5, 20]: 14% | COMBE Obs (Observed weed control) ([6]; glyphosate-isopropylammonium 710 grams ae/ha alone): 43% | KCHSC Obs (Observed weed control) ([7]; glyphosate-isopropylammonium 280 grams ae/ha alone): 23% | OTTNO Obs (Observed weed control) [8, 19]: 59% | CONAR Obs (Observed weed control) ([9]; glyphosate-isopropylammonium 1500 grams ae/ha alone, Table 4): 43% | CONAR Obs (Observed weed control) ([9]; glyphosate-isopropylammonium 2000 grams ae/ha alone, Table 3): 55% | CONAR Obs (Observed weed control) ([9]; glyphosate-isopropylammonium 2000 grams ae/ha alone, Table 4): 55% | POLCO Obs (Observed weed control) ([10]; glyphosate-isopropylammonium 1000 grams ae/ha alone, Table 3): 25% | POLCO Obs (Observed weed control) ([10]; glyphosate-isopropylammonium 1000 grams ae/ha alone, Table 4): 25% | POLCO Obs (Observed weed control) ([10]; glyphosate-isopropylammonium 1500 grams ae/ha alone, Table 3): 60% | CLOMU Obs (Observed weed control) [11, 19]: 64% | ANGAR Obs (Observed weed control) [12, 20]: 43% | PASCO Obs (Observed weed control) [13, 19]: 59% | MIKCO Obs (Observed weed control) ([14]; glyphosate-isopropylammonium 360 grams ae/ha alone): 58%
